# According to patent US11891362B1, “N2,N4-disubstituted pyrimidine-2,4-diamine compounds as antibacterial agents” (KING FAISAL UNIVERSITY, priority 2023, dated 2024):
# pIC50: −log10 of the molar value. Like-named read-outs stand apart in the source and are kept apart here.
# Assays:
# [1] = test system: Pseudomonas aeruginosa MTCC 741; assay: In vitro antibacterial activity, dilution susceptibility test (CLSI M07-A10); type: cell-based; details: MTCC741
# Description: (§1) Enterococcus faecium resistant to VRE, and Gram-negative organisms including Klebsiella pneumonia, Escherichia coli, Pseudomonas aeruginosa.
# [2] = test system: Klebsiella pneumonia MTCC 618; assay: as above; type: cell-based; details: Klebsiella pneumoniae, MTCC618
# Description: as §1
# [3] = test system: Mycobacterium tuberculosis H37Rv strain; assay: Anti-tubercular properties, alamar blue microplate assay; type: cell-based; details: 168 h, seven days incubation, read-out: anti-mycobacterial activity (MIC)
# [4] = test system: Bacillus subtilis MTCC 441; assay: In vitro antibacterial activity, dilution susceptibility test (CLSI M07-A10); type: cell-based; details: MTCC441
# Description: as §1
# [5] = test system: Staphylococcus epidermidis; assay: as above; type: cell-based
# Description: as §1
# [6] = test system: Escherichia coli MTCC 443; assay: as above; type: cell-based; details: MTCC443
# Description: as §1
# [7] = test system: Enterococcus faecium ATCC 35667; assay: as above; type: cell-based; details: ATCC35667
# Description: as §1
# [8] = test system: Enterococcus faecium ATCC 51559 (VRE resistant); assay: as above; type: cell-based
# Description: as §1
# [9] = test system: Staphylococcus aureus ATCC BAA-1556 (MERSA resistant); assay: as above; type: cell-based; details: ATCCBAA1556
# Description: as §1
# [10] = test system: Staphylococcus aureus ATCC 29213; assay: as above; type: cell-based; details: ATCC29213
# Description: as §1
# DNA gyrase from E. coli = target: T1, DNA gyrase from E. coli (Escherichia coli, UniProt P0AES4+P0AES6); assay: Inhibitory activities on E. coli DNA gyrase (Inspiralis assay); type: biochemical
# T1 construct: purchased Inspiralis
# T1 sequence (P0AES4 whole entry, one chain of several): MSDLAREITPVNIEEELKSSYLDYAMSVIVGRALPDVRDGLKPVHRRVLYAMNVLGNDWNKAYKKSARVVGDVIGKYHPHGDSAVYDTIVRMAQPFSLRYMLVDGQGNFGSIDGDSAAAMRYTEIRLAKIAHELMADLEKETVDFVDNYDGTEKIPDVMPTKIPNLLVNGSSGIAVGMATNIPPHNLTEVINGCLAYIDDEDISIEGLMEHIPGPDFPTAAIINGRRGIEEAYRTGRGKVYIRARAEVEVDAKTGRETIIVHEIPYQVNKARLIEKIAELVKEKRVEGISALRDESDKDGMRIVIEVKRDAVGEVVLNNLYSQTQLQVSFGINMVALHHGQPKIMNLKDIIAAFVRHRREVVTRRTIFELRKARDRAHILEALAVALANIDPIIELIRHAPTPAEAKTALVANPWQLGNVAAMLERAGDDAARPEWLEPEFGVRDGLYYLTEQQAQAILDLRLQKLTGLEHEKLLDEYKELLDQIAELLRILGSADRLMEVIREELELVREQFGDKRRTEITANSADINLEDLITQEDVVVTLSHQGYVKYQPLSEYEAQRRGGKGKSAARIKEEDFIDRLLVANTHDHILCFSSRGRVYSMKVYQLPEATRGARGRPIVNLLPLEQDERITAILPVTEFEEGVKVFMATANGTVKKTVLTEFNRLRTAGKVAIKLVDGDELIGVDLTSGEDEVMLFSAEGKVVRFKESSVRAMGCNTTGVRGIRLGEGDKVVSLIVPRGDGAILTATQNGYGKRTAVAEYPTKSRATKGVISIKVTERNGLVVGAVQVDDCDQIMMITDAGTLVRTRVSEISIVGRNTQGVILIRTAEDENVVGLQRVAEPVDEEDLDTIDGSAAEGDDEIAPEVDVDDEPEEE
# Experimental: First, the plates were rehydrated with buffer (20 mM Tris-HCl with pH 7.6, 0.01% w/v BSA, 0.05% v/v Tween 20, 137 mM NaCl) and the biotinylated oligonucleotide was then immobilized. After washing off the unbound oligonucleotide, the enzyme test was performed. The reaction volume of 30 μL in buffer (35 mM Tris×HCl with pH 7.5, 4 mM MgCl2, 24 mM KCl, 2 mM DTT, 1.8 mM spermidine, 1 mM ATP, 6.5% w/v glycerol, 0.1 mg/mL albumin) contained 1.5 U of DNA gyrase from E. coli, 0.75 μg of relaxed pNO1 plasmid, and 3 μL solution of the inhibitor in 10% DMSO and 0.008% Tween 20. Reaction solutions were incubated at 37° C. for 30 min. After that, the TF buffer (50 mM NaOAc with pH 5.0, 50 mM NaCl and 50 mM MgCl2) was added to terminate the enzymatic reaction. After additional incubation for 30 min at rt, during which biotinoligonucleotide-plasmid triplex was formed, the unbound plasmid was washed off using TF buffer and SybrGOLD in T10 buffer (10 mM Tris HCl with pH 8.0 and 1 mM EDTA) was added. The fluorescence was measured with a microplate reader (BioTek Synergy H4, excitation: 485 nm, emission: 535 nm). Initial screening was done at 100 or 10 μM concentration of inhibitors. […] GraphPad Prism software was used to calculate the IC50 values. The result is given as the average value of three independent measurements.
SMILES,MIC ([1]; Pseudomonas aeruginosa) [µg/mL],MIC [2] [µg/mL],MIC [3] [µg/mL],MIC [4] [µg/mL],MIC [5] [µg/mL],MIC [6] [µg/mL],MIC [7] [µg/mL],MIC [8] [µg/mL],"MIC ([1]; Pseudomonas aeruginosa MTCC 741, read-out: MIC) [µg/mL]","MIC ([2]; Klebsiella pneumonia MTCC 618, read-out: MIC) [µg/mL]",MIC [9] [µg/mL],MIC [10] [µg/mL],pIC50 (DNA gyrase from E. coli)
"CN[C@H](CC(C)C)C(=O)N[C@H]1C(=O)N[C@@H](CC(N)=O)C(=O)N[C@H]2C(=O)N[C@H]3C(=O)N[C@H](C(=O)N[C@H](C(=O)O)c4cc(O)cc(O)c4-c4cc3ccc4O)[C@H](O)c3ccc(c(Cl)c3)Oc3cc2cc(c3O[C@@H]2O[C@H](CO)[C@@H](O)[C@H](O)[C@H]2O[C@H]2C[C@](C)(N)[C@H](O)[C@H](C)O2)Oc2ccc(cc2Cl)[C@H]1O [Vancomycin, reference compound]",> 128,> 128,–,–,–,–,–,–,–,–,–,–,–
"CC(=O)Nc1cccc(Nc2nccc(Nc3ccc(C(=O)O)cc3CN(C)C3CCCCC3)n2)c1 [Compound 7, 4-((2-((3-acetamidophenyl)amino)pyrimidin-4-yl)amino)-3-((cyclohexyl(methyl)amino)methyl)benzoic acid]",–,–,16,4,8,8,4,16,4,4,8,8,6.60
